Data as given in PubChem BioAssay AID1259411 (Chemical Carcinogenesis Research Information System (CCRIS), 2018).
The source made the active and inactive calls. The rule behind the calls is not given here.

Test system: rodent carcinogenicity bioassays, tumor incidence
Assay: CCRIS carcinogenicity studies
Outline: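 Archive of carcinogenicity, mutagenicity, tumor promotion and tumor inhibition results drawn from journals, NCI reports and other sources, expert-reviewed; covers 1985-2011 and is no longer updated.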

Measured: carcinogen call

BrCCBr
active: Species: FISH, Strain/Sex: JAPANESE MEDAKA/MALE,FEMALE, Route: IMMERSION, Dose: 0, 0.133, 6.2, 18.58 MG/L IN WATER FOR UP TO 97 D (STUDY DURATION: 58 WK), Dose: 0, 0.133, 6.2, 18.58 MG/L IN WATER FOR UP TO 97 D (STUDY DURATION: 58 WK), Tumor Site: Type of Lesion: LIVER: HEPATOCELLULAR ADENOMA, HEPATOCELLULAR CARCINOMA, CHOLANGIOMA, CHOLANGIOCELLULAR CARCINOMA, GALL BLADDER: TUMOR active; positive | Species: FISH, Strain/Sex: SHASTA RAINBOW TROUT/MALE, FEMALE, Route: ORAL, Dose: 0, 2000 PPM IN DIET FOR 18 MO (STUDY DURATION: 18 MO), Tumor Site: Type of Lesion: STOMACH: PAPILLOMA active; positive | Species: MOUSE, Strain/Sex: B6C3F1/FEMALE, Route: GAVAGE, Dose: 0, 62, 107 MG/KG, TWA IN CORN OIL (STUDY DURATION: 78-90 WK), Dose: 0, 62, 107 MG/KG, TWA IN CORN OIL (STUDY DURATION: 78-90 WK), Tumor Site: Type of Lesion: LUNG: ALVEOLAR/BRONCHIOLAR ADENOMA, CARCINOMA, STOMACH: SQUAMOUS CELL CARCINOMA active; positive | Species: MOUSE, Strain/Sex: B6C3F1/FEMALE, Route: INHALATION, Dose: 0, 10, 40 PPM 6 HR/D, 5 D/WK FOR 90-103 WK (STUDY DURATION: 91-104 WK), Dose: 0, 10, 40 PPM 6 HR/D, 5 D/WK FOR 90-103 WK (STUDY DURATION: 91-104 WK), Tumor Site: Type of Lesion: INTEGUMENTARY SYSTEM (SUBCUTANEOUS TISSUE OR RIB): FIBROSARCOMA, NASAL CAVITY: CARCINOMA (NOS), CARCINOMA (NOS) OR ADENO active; positive | Species: MOUSE, Strain/Sex: B6C3F1/FEMALE, Route: INHALATION, Dose: 0, 10, 40 PPM 6 HR/D, 5 D/WK FOR 90-103 WK (STUDY DURATION: 91-104 WK), Dose: 0, 10, 40 PPM 6 HR/D, 5 D/WK FOR 90-103 WK (STUDY DURATION: 91-104 WK), Tumor Site: Type of Lesion: NASAL CAVITY: SQUAMOUS CELL PAPILLOMA, CARCINOMA active; positive | Species: MOUSE, Strain/Sex: B6C3F1/MALE, Route: GAVAGE, Dose: 0, 62, 107 MG/KG, TWA IN CORN OIL (STUDY DURATION: 77-78 WK), Dose: 0, 62, 107 MG/KG, TWA IN CORN OIL (STUDY DURATION: 77-78 WK), Tumor Site: Type of Lesion: LUNG: ALVEOLAR/BRONCHIOLAR ADENOMA, STOMACH: SQUAMOUS CELL PAPILLOMA, SQUAMOUS CELL CARCINOMA active; positive | Species: MOUSE, Strain/Sex: B6C3F1/MALE, Route: INHALATION, Dose: 0, 10, 40 PPM 6 HR/D, 5 D/WK FOR 78 WK (STUDY DURATION: 79 WK), Dose: 0, 10, 40 PPM 6 HR/D, 5 D/WK FOR 78 WK (STUDY DURATION: 79 WK), Tumor Site: Type of Lesion: LUNG: ALVEOLAR/BRONCHIOLAR ADENOMA, ALVEOLAR/BRONCHIOLAR CARCINOMA active; positive | Species: MOUSE, Strain/Sex: B6C3F1/MALE, Route: INHALATION, Dose: 0, 10, 40 PPM 6 HR/D, 5 D/WK FOR 90-103 WK (STUDY DURATION: 91-104 WK), Dose: 0, 10, 40 PPM 6 HR/D, 5 D/WK FOR 90-103 WK (STUDY DURATION: 91-104 WK), Tumor Site: Type of Lesion: NASAL CAVITY: SQUAMOUS CELL PAPILLOMA active; positive | Species: RAT, Strain/Sex: F344/FEMALE, Route: INHALATION, Dose: 0, 10, 40 PPM 6 HR/D, 5 D/WK FOR 91-103 WK (STUDY DURATION: 92-104 WK), Dose: 0, 10, 40 PPM 6 HR/D, 5 D/WK FOR 91-103 WK (STUDY DURATION: 92-104 WK), Tumor Site: Type of Lesion: NASAL CAVITY: ADENOMA (NOS), CARCINOMA (NOS), ADENOCARCINOMA (NOS);LUNG: ALVEOLAR/BRONCHIOLAR ADENOMA OR CARCINOMA;SPLEE active; positive | Species: RAT, Strain/Sex: F344/MALE, Route: INHALATION, Dose: 0, 10, 40 PPM 6 HR/D, 5 D/WK FOR 88-103 WK (STUDY DURATION: 89-104 WK), Dose: 0, 10, 40 PPM 6 HR/D, 5 D/WK FOR 88-103 WK (STUDY DURATION: 89-104 WK), Tumor Site: Type of Lesion: NASAL CAVITY: ADENOMA (NOS), ADENOCARCINOMA (NOS), CARCINOMA (NOS), ADENOMATOUS POLYP (NOS), CIRCULATORY SYSTEM: HEMANGI active; positive | Species: RAT, Strain/Sex: OSBORNE-MENDEL/FEMALE, Route: GAVAGE, Dose: 0, 37, 39 MG/KG, TWA IN CORN OIL (STUDY DURATION: 61 WK), Dose: 0, 37, 39 MG/KG, TWA IN CORN OIL (STUDY DURATION: 61 WK), Tumor Site: Type of Lesion: STOMACH: SQUAMOUS CELL CARCINOMA, LIVER: HEPATOCELLULAR CARCINOMA, NEOPLASTIC NODULE active; positive | Species: RAT, Strain/Sex: OSBORNE-MENDEL/MALE, Route: GAVAGE, Dose: 0, 38, 41 MG/KG, TWA IN CORN OIL (STUDY DURATION: 49 WK), Dose: 0, 38, 41 MG/KG, TWA IN CORN OIL (STUDY DURATION: 49 WK), Tumor Site: Type of Lesion: BLOOD VESSELS: HEMANGIOSARCOMA, STOMACH: SQUAMOUS CELL CARCINOMA active; positive | Species: RAT, Strain/Sex: SPRAGUE-DAWLEY/FEMALE, Route: INHALATION, Dose: 20 PPM 7 HR/D, 5 D/WK FOR 18 MO, Tumor Site: Type of Lesion: SPLEEN: HEMANGIOSARCOMA, ADRENAL GLAND: PHEOCHROMOCYTOMA, CORTICAL ADENOMA, CARCINOMA, MAMMARY GLAND: ADENOMA, FIBROADEN, Tumor Site: Type of Lesion: SPLEEN: HEMANGIOSARCOMA, ADRENAL GLAND: PHEOCHROMOCYTOMA, CORTICAL ADENOMA, CARCINOMA, MAMMARY GLAND: ADENOMA, FIBROADEN active; positive | Species: RAT, Strain/Sex: SPRAGUE-DAWLEY/MALE, Route: INHALATION, Dose: 20 PPM 7 HR/D, 5 D/WK FOR 18 MO, Tumor Site: Type of Lesion: SPLEEN: HEMANGIOSARCOMA, ADRENAL GLAND: PHEOCHROMOCYTOMA, CORTICAL ADENOMA, CARCINOMA, INTEGUMENTARY SYSTEM (SUBCUTANEOU, Tumor Site: Type of Lesion: SPLEEN: HEMANGIOSARCOMA, ADRENAL GLAND: PHEOCHROMOCYTOMA, CORTICAL ADENOMA, CARCINOMA, INTEGUMENTARY SYSTEM (SUBCUTANEOU active; positive
